The values below come from ChEMBL document CHEMBL2413021, “Regioselective synthesis of 6-aryl-benzo[h][1,2,4]-triazolo[5,1-b]quinazoline-7,8-diones as potent antitumoral agents” (Bioorg Med Chem Lett, 2013).

Usually IC50 stands for the concentration that inhibits the measured activity by half.

Some results are limits rather than exact numbers.

One assay relates to SGC-7901. Briefly: Cytotoxicity against human SGC7901 cells after 48 hrs by MTT assay. In kind it is functional, cell-based. Conditions: SGC-7901, 48 h.
The subject of the next assay is HepG2. Put plainly: Cytotoxicity against human HepG2 cells after 48 hrs by MTT assay. Conditions: HepG2, 48 h. The assay is classed as functional, cell-based. For orientation: Tetrazolium dyes change colour on reduction, which living cells bring about.

For the compound `COc1ccc(-c2c3c(nc4ncnn24)-c2ccccc2C(=O)C3=O)cc1`, the IC50 in the assay with SGC-7901 was 1.31 µM; in the assay on HepG2, 1.71 µM.
Consider `O=C1C(=O)c2c(nc3ncnn3c2-c2cccs2)-c2ccccc21`, for which the results for the IC50 with SGC-7901 and in the assay with HepG2 were 1.45 µM and 2.13 µM, respectively.
The corresponding values for `O=C1C(=O)c2c(nc3ncnn3c2-c2ccc([N+](=O)[O-])cc2)-c2ccccc21` are 2.65 µM and 4.74 µM.
As to `Cc1ccc(-c2c3c(nc4ncnn24)-c2ccccc2C(=O)C3=O)cc1`, the IC50 stood at 1.71 µM in the assay on SGC-7901 and 1.19 µM with HepG2.
For the compound `Clc1ccc(-c2c3c(nc4ncnn24)c2ccccc2c2nc4ccccc4nc23)cc1`, the IC50 in the assay on SGC-7901 and in the assay with HepG2 was more than 200 µM in each case.
Consider `O=C1C(=O)c2c(nc3ncnn3c2-c2ccccc2)-c2ccccc21`, for which the IC50 was 2.16 µM in the assay with SGC-7901 and 3.45 µM in the assay on HepG2.
In the case of `O=C1C(=O)c2c(nc3ncnn3c2-c2ccc(Cl)cc2Cl)-c2ccccc21`, the IC50 was 1.83 µM with SGC-7901 and 2.99 µM with HepG2.
Consider `O=C1C(=O)c2c(nc3ncnn3c2-c2ccc(Cl)cc2)-c2ccccc21`, for which the IC50 in the assay with SGC-7901 came to 34.9 µM; in the assay with HepG2, 24.9 µM.
For `O=C1C(=O)c2c(nc3ncnn3c2-c2ccc(F)cc2)-c2ccccc21`, the 50% inhibitory concentration (IC50) in the assay on SGC-7901 worked out at 6.12 µM; in the assay with HepG2, 7.85 µM.
For the compound `O=C1C(=O)c2c(nc3ncnn3c2-c2cccc([N+](=O)[O-])c2)-c2ccccc21`, the IC50 is 9.88 µM in the assay on SGC-7901 and 15.3 µM with HepG2.
As for `COc1cc(-c2c3c(nc4ncnn24)-c2ccccc2C(=O)C3=O)cc(OC)c1OC`, the IC50 with SGC-7901 came to 59.2 µM; with HepG2, 17.9 µM.
For `COc1cccc2c1C(=O)c1c(O)c3c(c(O)c1C2=O)C[C@@](O)(C(=O)CO)C[C@@H]3O[C@H]1C[C@H](N)[C@H](O)[C@H](C)O1` [DOXORUBICIN], the IC50 was 5.72 µM with SGC-7901 and 1.02 µM with HepG2.
